Test results published in BindingDB's records for doi:10.7270/Q2KP80MW (The Scripps Research Institute Molecular Screening Center, 2011).

Target: T1, Peroxisome proliferator-activated receptor gamma (Homo sapiens, UniProt P37231)
T1 sequence (P37231 whole entry): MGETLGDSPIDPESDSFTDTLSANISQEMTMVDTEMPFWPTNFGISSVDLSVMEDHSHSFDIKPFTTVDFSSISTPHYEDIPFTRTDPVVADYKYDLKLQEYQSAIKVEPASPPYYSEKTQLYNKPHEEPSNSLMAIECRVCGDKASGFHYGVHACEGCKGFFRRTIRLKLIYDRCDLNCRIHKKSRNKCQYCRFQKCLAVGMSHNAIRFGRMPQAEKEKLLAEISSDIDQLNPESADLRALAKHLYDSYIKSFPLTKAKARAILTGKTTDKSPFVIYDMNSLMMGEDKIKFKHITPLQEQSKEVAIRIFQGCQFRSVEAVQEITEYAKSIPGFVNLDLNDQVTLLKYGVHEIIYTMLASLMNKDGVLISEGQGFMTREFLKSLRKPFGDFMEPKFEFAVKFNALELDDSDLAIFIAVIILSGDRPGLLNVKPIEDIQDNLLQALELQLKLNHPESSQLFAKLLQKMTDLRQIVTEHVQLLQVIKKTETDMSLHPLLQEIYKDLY
Assay: competitive ligand displacement at PPARg – biochemical, fluorescence polarization, PolarScreen, PPARg partial agonist project, dose response (AID 504453)

IC50 [µM]	Compound
22	Cc1ccc2nc(N3C(=O)C(=O)C(C(=O)c4ccc(C)o4)C3c3ccco3)sc2c1 (centres undefined)
5	COc1ccc2nc(N3C(=O)C(=O)C(C(=O)c4ccco4)C3c3ccc(C)o3)sc2c1 (centres undefined)
3	CCOc1ccc2nc(N3C(=O)C(=O)C(C(=O)c4ccco4)C3c3ccco3)sc2c1 (centres undefined) [1-(6-ethoxy-1,3-benzothiazol-2-yl)-2-(2-furanyl)-3-[2-furanyl(oxo)methyl]-4-hydroxy-2H-pyrrol-5-one]
30	Cc1ccc2nc(N3C(=O)C(=O)C(C(=O)c4ccco4)C3c3ccc(C)o3)sc2c1 (centres undefined) [3-[2-furanyl(oxo)methyl]-4-hydroxy-1-(6-methyl-1,3-benzothiazol-2-yl)-2-(5-methyl-2-furanyl)-2H-pyrrol-5-one;oxalic acid]
